We go through 16 compounds from US12391712B2, “Phosphate derivatives of RORgamma modulators and uses thereof” (GENFIT, priority 2019, dated 2025).

As a reminder, the solubility is the concentration that dissolves in the medium under given conditions. The Solubility is how much of the substance goes into solution per volume. Low readings indicate little dissolved substance, high ones much dissolved substance.

≈ marks a conversion by molar mass, not a printed value.

A short description of data set [1]: Solubility in phosphate buffer pH=7.4. It counts as physicochemical. The conditions noted are these: for solubility at 24 h: aqueous buffer, thermodynamic from solid; for Solubility ratio: phosphate derivative / unphosphated counterpart; for Solubility ratio / fold more soluble compared to unphosphated analogue: phosphate buffer pH=7.4. As to the method:
General procedure: The test compound was solubilized in phosphate buffer pH=7.4 at a given concentration (test concentration). The mixture was maintained under vigorous stirring for 24 hours at room temperature. In case a insoluble solid appeared, it was removed by centrifugation and the concentration of the test compound in the solution was determined by LC-MS/MS using appropriate methods.

Data set [2] is described as follows: Metabolic stability (hydrolysis) in bronchoalveolar lavage fluid. The format is in vitro ADME, human. Here is the method:
General procedure: human bronchoalveolar lavage fluid (hBALf) was purchased from BiolVT. Sample was collected from an individual donor. The only known information provided for the donor were age and gender. Information regarding the health status of the donor was not known.
The hydrolysis of compound 2 was tested at the concentration of 1 μM and 10 μM for 120 minutes (time points 5, 15, 30, 60 and 120 minutes). Quantification of the compound was then carried out by LC-MS/MS using appropriate methods.

The nature of data set [3]: Stability in water at room temperature. Conditions: 5 mg/mL in water. The format is physicochemical. Here is the method: General procedure: compound 2 (Cpd. 2) according to the invention was dissolved in water in order to obtain a 5 mg/mL concentration. The solution was stirred for 7 days at room temperature. Compound 2 was quantified at different time points (0, 5 days and 7 days) by UPLC/MS using appropriate method.
Results are expressed as percentage of initial signal area for Cpd.2 (time point (1-day).

Where [4] appears, read: phosphate buffer pH=7.4, stirring 24 hours at room temperature, LC-MS/MS.

In turn, `Cc1ccc(C(NC(=O)C2(c3ccc4[nH]cc(CCO)c4c3)CC2)c2cccc(Cl)c2)c(C)c1` (centres unmarked) [Ex.4a, N-[(3-chlorophenyl)(2,4-dimethylphenyl)methyl]-1-[3-(2-hydroxyethyl)-1H-indol-5-yl]cyclopropane-1-carboxamide] returned a solubility at 24 h in data set [1] (setting [4]) of 0.1 µg/mL (≈ 0.211 µM).

As to `Cc1ccc(C(NC(=O)C2(c3ccc4[nH]cc(CCOP(=O)([O-])[O-])c4c3)CC2)C2CC2)c(C)c1.[Na+].[Na+]` (centres unmarked) [Cpd.14, disodium 2-[5-(1-{[cyclopropyl(2,4-dimethylphenyl)methyl]carbamoyl}cyclopropyl)-1H-indol-3-yl]ethyl phosphate], the solubility at 24 h in data set [1] (setting [4]) is more than 70800 µg/mL. Besides, in data set [1], the Solubility ratio is ≥5 949.

`Cc1ccc(C(NC(=O)C2(c3ccc4[nH]cc(CCOP(=O)([O-])[O-])c4c3)CC2)c2ccc(C)o2)c(C)c1.[Na+].[Na+]` (centres unmarked) [Cpd.2, disodium 2-[5-(1-{[(2,4-dimethylphenyl)(5-methylfuran-2-yl)methyl]carbamoyl}cyclopropyl)-1H-indol-3-yl]ethyl phosphate]: the solubility at 24 h in data set [1] (setting [4]) was 143000 µg/mL. For the same compound, the “fold more soluble compared to unphosphated analogue” value in data set [1] is recorded as “at least 1500 fold”. The Solubility ratio in data set [1] is reported as 1 588. For the same compound, the “Cpd.2 quantification in hBALf, percentage of initial signal area” value was found to be 100% in data set [2] (1 μM, time point 0 min); 16.46% in data set [2] (1 μM, time point 5 min); 1.84% in data set [2] (1 μM, time point 15 min); 0.57% in data set [2] (1 μM, time point 30 min); 0.28% in data set [2] (1 μM, time point 60 min); 0.19% in data set [2] (1 μM, time point 120 min). Besides, the “Cpd.2 quantification in hBALf, percentage of initial signal area” value was determined as 100% in data set [2] (10 μM, time point 0 min); 14.98% in data set [2] (10 μM, time point 5 min); 4.27% in data set [2] (10 μM, time point 15 min); 1.38% in data set [2] (10 μM, time point 30 min); 0.49% in data set [2] (10 μM, time point 60 min); 0.25% in data set [2] (10 μM, time point 120 min). The “percentage of initial signal area for Cpd.2 (stability in water)” value in data set [3] (time point 0 days) came to 100%; in data set [3] (time point 5 days), 98%; in data set [3] (time point 7 days), 98%.

`COc1cc(C)ccc1C(NC(=O)C1(c2ccc3[nH]cc(CCOP(=O)([O-])[O-])c3c2)CC1)c1ccccc1.[Na+].[Na+]` (centres unmarked) [Cpd.4, disodium 2-[5-(1-{[(2-methoxy-4-methylphenyl)(phenyl)methyl]carbamoyl}cyclopropyl)-1H-indol-3-yl]ethyl phosphate] had a solubility at 24 h in data set [1] (setting [4]) of 11200 µg/mL. Besides, the Solubility ratio in data set [1] was 7 000.

Take `Cc1ccc(C(NC(=O)C2(c3ccc4[nH]cc(CCO)c4c3)CC2)c2cccc(C)n2)c(C)c1` (centres unmarked) [Ex.3a, N-[(2,4-dimethylphenyl)(6-methylpyridin-2-yl)methyl]-1-[3-(2-hydroxyethyl)-1H-indol-5-yl]cyclo-propane-1-carboxamide]: the solubility at 24 h in data set [1] (setting [4]) was determined as 5.2 µg/mL (≈ 11.5 µM).

For `Cc1ccc(C(NC(=O)C2(c3ccc4[nH]cc(CCOP(=O)(O)O)c4c3)CC2)c2cccc(C)n2)c(C)c1.[Na].[Na]` (centres unmarked) [Cpd.6, disodium {2-[5-(1-{[(2,4-dimethyl phenyl)(6-methylpyridin-2-yl)methyl]carbamoyl}cyclopropyl)-1H-indol-3-yl]ethoxy} phosphonic acid], in data set [1] (setting [4]), the solubility at 24 h was more than 62700 µg/mL. Also, in data set [1], the Solubility ratio is listed as ≥12 000.

As to `Cc1ccc(C(NC(=O)C2(c3ccc4[nH]cc(CCO)c4c3)CC2)c2ccc(C)o2)c(C)c1` (centres unmarked) [Cpd.A, N-[(2,4-dimethylphenyl)(5-methylfuran-2-yl)methyl]-1-[3-(2-hydroxyethyl)-1H-indol-5-yl]cyclopropane-1-carboxamide, reference compound], in data set [1] (setting [4]), the solubility at 24 h was 90 µg/mL (≈ 203 µM).

In the case of `Cc1ccc(C(NC(=O)C2(c3ccc4[nH]cc(CCOP(=O)([O-])[O-])c4c3)CC2)c2cccc(Cl)c2)c(C)c1.[Na+].[Na+]` (centres unmarked) [Cpd.8, disodium 2-[5-(1-{[(3-chlorophenyl)(2,4-dimethylphenyl)methyl]carbamoyl}cyclopropyl)-1H-indol-3-yl]ethyl phosphate], in data set [1] (setting [4]), the solubility at 24 h was more than 10000 µg/mL. Also, in data set [1], the “fold more soluble compared to unphosphated analogue” value is on record as “more than 100 000 fold” and the Solubility ratio is ≥100 000.

`Cc1ccc(C(NC(=O)C2(c3ccc4[nH]cc(CCO)c4c3)CC2)c2ccccc2)c(N2CCOCC2)c1` (centres unmarked) [Ex.8a, 1-[3-(2-hydroxyethyl)-1H-indol-5-yl]-N-{[4-methyl-2-(morpholin-4-yl)phenyl](phenyl)methyl}cyclopropane-1-carboxamide] registered a solubility at 24 h in data set [1] (setting [4]) of 0.07 µg/mL (≈ 0.137 µM).

Compound `COc1cc(C)ccc1C(NC(=O)C1(c2ccc3[nH]cc(CCO)c3c2)CC1)c1ccccc1` (centres unmarked) [Ex.2a, 1-[3-(2-hydroxyethyl)-1H-indol-5-yl]-N-[(2-methoxy-4-methylphenyl)(phenyl)methyl]cyclopropane-1-carboxamide] came in with a solubility at 24 h in data set [1] (setting [4]) of 1.6 µg/mL (≈ 3.52 µM).

The compound `COc1ccc(C(NC(=O)C2(c3ccc4[nH]cc(CCO)c4c3)CC2)c2ccccc2)c(C)c1` (centres unmarked) [Ex.5a, 1-[3-(2-hydroxyethyl)-1H-indol-5-yl]-N-[(4-methoxy-2-methylphenyl)(phenyl)methyl]cyclopropane-1-carboxamide] registered a solubility at 24 h in data set [1] (setting [4]) of 3.7 µg/mL (≈ 8.14 µM).

Consider `Cc1noc(C)c1C(NC(=O)C1(c2ccc3[nH]cc(CCO)c3c2)CC1)c1ccccc1` (centres unmarked) [Ex.9d, N-[(dimethyl-1,2-oxazol-4-yl)(phenyl)methyl]-1-[3-(2-hydroxyethyl)-1H-indol-5-yl]cyclopropane-1-carboxamide], for which, in data set [1] (setting [4]), the solubility at 24 h stood at 78.3 µg/mL (≈ 182 µM).

On to `Cc1noc(C)c1C(NC(=O)C1(c2ccc3[nH]cc(CCOP(=O)([O-])[O-])c3c2)CC1)c1ccccc1.[Na+].[Na+]` (centres unmarked) [Cpd.18, disodium 2-[5-(1-{[(dimethyl-1,2-oxazol-4-yl) (phenyl)methyl]carbamoyl}cyclopropyl)-1H-indol-3-yl] ethyl phosphate], for which, in data set [1] (setting [4]), the Solubility is more than 71350 µg/mL. For the same compound, the Solubility ratio in data set [1] is not below 911.

In turn, `Cc1ccc(C(NC(=O)C2(c3ccc4[nH]cc(CCO)c4c3)CC2)C2CC2)c(C)c1` (centres unmarked) [Ex.7a, N-[cyclopropyl(2,4-dimethylphenyl)methyl]-1-[3-(2-hydroxyethyl)-1H-indol-5-yl]cyclopropane-1-carboxamide] came in with a solubility at 24 h in data set [1] (setting [4]) of 11.9 µg/mL (≈ 29.6 µM).

As for `COc1ccc(C(NC(=O)C2(c3ccc4[nH]cc(CCOP(=O)([O-])[O-])c4c3)CC2)c2ccccc2)c(C)c1.[Na+].[Na+]` (centres unmarked) [Cpd.10, disodium 2-[5-(1-{[(4-methoxy-2-methylphenyl)(phenyl)methyl]carbamoyl}cyclopropyl)-1H-indol-3-yl]ethyl phosphate], in data set [1] (setting [4]), the solubility at 24 h is more than 50400 µg/mL. In addition, the Solubility ratio in data set [1] was not below 13513.

In turn, `Cc1ccc(C(NC(=O)C2(c3ccc4[nH]cc(CCOP(=O)([O-])[O-])c4c3)CC2)c2ccccc2)c(N2CCOCC2)c1.[Na+].[Na+]` (centres unmarked) [Cpd.16, disodium 2-{5-[1-({[4-methyl-2-(morpholin-4-yl)phenyl](phenyl)methyl}carbamoyl)cyclopropyl]-1H-indol-3-yl}ethyl phosphate] yielded a solubility at 24 h in data set [1] (setting [4]) of 3640 µg/mL. Also, in data set [1], the Solubility ratio was 52 057.
